# Reference: patent publication US20200172473A1, “DUAL MODULATORS OF FARNESOID X RECEPTOR AND SOLUBLE EPOXIDE HYDROLASE” (JOHANN WOLFGANG GOETHE-UNIVERSITÄT FRANKFURT AM MAIN, priority 2017, published 2020)
# Like-named read-outs stand apart in the source and are kept apart here.
# Tests used:
# [1] = biological target: T1, LXRβ (Homo sapiens, UniProt P55055); test: Gal4-hybrid reporter gene assay LXRβ in HEK293T cells; type: cell-based; details: 10 μM; printed as both LXR subtypes
# T1 construct: pFA-CMV-hLXRβ-LBD; expressed in transfected cells; host or cells: HEK293T
# T1 sequence (P55055 222-460 limits assumed): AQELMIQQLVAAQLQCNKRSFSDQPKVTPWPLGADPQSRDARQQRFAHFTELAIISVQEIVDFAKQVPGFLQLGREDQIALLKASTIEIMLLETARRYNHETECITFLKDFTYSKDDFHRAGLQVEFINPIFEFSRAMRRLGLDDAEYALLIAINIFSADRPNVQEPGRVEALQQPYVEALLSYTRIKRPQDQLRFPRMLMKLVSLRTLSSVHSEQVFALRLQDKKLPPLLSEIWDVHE
# Text: (§1) Hybrid reporter gene assays for PPARα/γ/δ, LXRα/β, RXRα/β/γ, RARα/β/γ, VDR and PXR Plasmids: The Gal4-fusion receptor plasmids pFA-CMV-hPPARα-LBD^52, pFA-CMV-hPPARγ-LBD^52, pFA-CMV-hPPARδ-LBD^52, pFA-CMV-hLXRα-LBD^32 and pFA-CMV-hLXRβ-LBD^32 have been reported previously. […] Frame and sequence of all fusion receptors were verified by sequencing. pFR-Luc (Stratagene) was used as reporter plasmid and pRL-SV40 (Promega) for normalization of transfection efficiency and cell growth.
# (§2) Assay procedure: HEK293T cells were grown in DMEM high glucose, supplemented with 10% FCS, sodium pyruvate (1 mM), penicillin (100 U/mL) and streptomycin (100 μg/mL) at 37° C. and 5% CO2. The day before transfection, HEK293T cells were seeded in 96-well plates (2.5·10^4 cells/well). Before transfection, medium was changed to Opti-MEM without supplements. Transient transfection was carried out using Lipofectamine LTX reagent (Invitrogen) according to the manufacturer's protocol with pFR-Luc (Stratagene), pRL-SV40 (Promega) and pFA-CMV-hRXRα-LBD. 5 h after transfection, medium was changed to Opti-MEM supplemented with penicillin (100 U/mL), streptomycin (100 μg/mL), now additionally containing 0.1% DMSO and the respective test compound or 0.1% DMSO alone as untreated control. […] Luminescence was measured with an Infinite M200 luminometer (Tecan Deutschland GmbH). […]
# [2] = biological target: T2, recombinant human sEH (Homo sapiens, UniProt P34913); test: fluorescence-based sEH activity assay with PHOME substrate; type: biochemical
# T2 sequence (P34913 1-555): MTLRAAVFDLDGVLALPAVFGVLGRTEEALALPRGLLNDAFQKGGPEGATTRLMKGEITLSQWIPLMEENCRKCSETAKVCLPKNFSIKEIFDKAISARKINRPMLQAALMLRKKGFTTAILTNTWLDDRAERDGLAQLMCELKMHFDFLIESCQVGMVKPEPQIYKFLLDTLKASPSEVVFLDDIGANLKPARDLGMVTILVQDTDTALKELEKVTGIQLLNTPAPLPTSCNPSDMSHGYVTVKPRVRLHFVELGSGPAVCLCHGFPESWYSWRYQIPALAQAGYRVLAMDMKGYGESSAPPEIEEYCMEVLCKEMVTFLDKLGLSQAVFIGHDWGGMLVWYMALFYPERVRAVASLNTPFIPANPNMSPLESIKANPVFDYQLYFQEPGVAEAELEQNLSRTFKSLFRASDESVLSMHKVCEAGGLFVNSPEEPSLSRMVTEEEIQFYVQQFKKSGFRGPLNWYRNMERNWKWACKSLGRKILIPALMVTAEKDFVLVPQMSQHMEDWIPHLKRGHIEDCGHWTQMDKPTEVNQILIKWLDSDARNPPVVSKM
# Text: This assay is based on a reporter construct containing a firefly luciferase under the control of the FXR response element from bile salt export protein (BSEP). FXR and its hetero dimer partner retinoid X receptor (RXR) as expression constructs under the control of a CMV promoter as well as a constitutively expressed renilla luciferase (SV40 promoter) for normalization and toxicity control were co-transfected. […] The sEH inhibitory potency of the test compounds was quantified in a fluorescence-based assay using recombinant enzyme and the fluorogenic sEH substrate PHOME^37 that is hydrolyzed to a fluorescent 6-methoxynaphtaldehyde by sEH.
# The sEH inhibitory potency of the compounds were determined in a fluorescence-based 96-well sEH activity assay using recombinant human enzyme^50,51. Non-fluorescent PHOME (3-phenylcyano-(6-methoxy-2-naphthalenyl)methyl ester 2-oxiraneacetic acid; Cayman Chemicals) which can be hydrolyzed by the sEH to fluorescent 6-methoxynaphthaldehyde served as substrate. Recombinant human sEH (in Bis-Tris buffer, pH 7, with 0.1 mg/mL BSA containing a final concentration of 0.01% Triton-X 100) was pre-incubated with test compounds (in DMSO, final DMSO concentration: 1%) for 30 min at room temperature. […] A blank control (no protein and no compound) as well as a positive control (no compound) were executed. All experiments were conducted in triplicate and repeated in at least three independent experiments. For IC50 calculation, dose-response curves of increasing compound concentrations were recorded.
# [3] = tested on: related nuclear receptors (PPARs, LXRs, RXRs, RARs, PXR and VDR); test: selectivity profile in Gal4-hybrid reporter gene assays (panel statement); type: cell-based, human; details: except PPARγ
# Text: as §1, §2
smiles,measurement,setting,value
"CC(C)(C)c1ccc(C(=O)NCc2ccc(NS(C)(=O)=O)cc2Cl)cc1 [compound 57, 4-(tert-Butyl)-N-(2-chloro-4-(methylsulfonamido)benzyl)benzamide]",activity on LXRβ,[1],inactive
same,IC50,[2]; read-out: IC50 for sEH inhibition,4.1 ± 0.4 nM
same,IC50,"[2]; recombinant human sEH, PHOME, read-out: sEH inhibition IC50",4.1 ± 0.4 nM
same,activity on related nuclear receptors,[3],inactive
